“Also recorded” adds a separate entry of the source. Read-outs that look alike come from different tables or passages of the source.
Experiments:
HCVcc [1] = experiment: Anti-HCV activity: HCVcc expressing Renilla luciferase in Huh-7.5.1 cells, luciferase readout; assay type: cell-based, hepatitis C virus; conditions: for IC50: Hepatitis C virus, Huh-7.5.1 cells infected with HCVcc, 1 h preincubation then 48 h with virus, mean ± SEM, three experiments; for Anti-HCV activity: HCVcc in Huh-7.5.1 cells, up to 100 μM
Procedure: Huh-7.5.1 cells were maintained in Dulbecco's modified Eagle's medium (DMEM) containing 4.5 g/l D-glucose, 4 mM L-glutamine (Life Technologies), supplemented with 100 units/mL penicillin (Life Technologies), 100 μg/mL streptomycin (Life Technologies), non-essential amino acids (Sigma-Aldrich), 1 mM Hepes (Life Technologies) and 10% heat-inactivated fetal calf serum (FCS, Hyclone). […] In cell viability and HCV in vitro propagation experiments, the final concentration of DMSO was systematically adjusted to 0.1%. We checked that this amount of DMSO had no effect on the biological cycle of HCVcc in vitro (data not shown).
(§1) HCVcc was generated from the FL-J6/JFH-5’C19Rluc2AUbi construct, a monocistronic, full-length HCV genome that expresses Renilla luciferase. It was produced and titrated as described elsewhere, except for the readout for luciferase activity measurement. Cell viability was evaluated with the Cell Proliferation Reagent WST-1 (Roche), according to the manufacturer’s instructions. Luciferase assays were performed according to the manufacturer’s instructions (Promega) and measurements were performed on a Centro XS3 LB960 luminometer (Berthold Technologies).
(§2) Cell viability and viral replication data from at least three independent experiments were analyzed. The IC50 values of the compounds were determined from dose-response curves generated with seven to 12 concentrations of each compound. Curves were fitted to the data points by nonlinear regression analysis and IC50 values were interpolated from the resulting curves with GraphPad Prism 5.00 software.
We evaluated the anti-HCV activity of the 10 atranorin-related compounds, using a virus grown in cell culture (HCVcc) with a modification of its genome resulting in expression of the Renilla luciferase reporter gene. […] These two compounds are known to interfere with the entry and replication steps of viral cycle, respectively. The maximum dose of each tested compound was 100 μM, because most of these molecules became insoluble in aqueous solution at higher concentrations. The first experimental procedure used involved the preincubation of human hepatic Huh-7.5.1 cells for 1 h with various doses of the molecules. The cells were then cultured in the presence of both the molecules tested and the virus, for an additional 48 h. At the end of the incubation period, we assessed cell viability and viral replication. This protocol made it possible to test the effects of molecules on both virus entry and replication. […] Remarkably, compound 6 tended to give a slightly, but reproducibly higher viability signal when used at high doses, with a peak at about 50 μM. […] At concentrations greater than 50 μM, cytotoxic effects emerged, as shown by the decrease of the viability signal.

in vitro = assay type: cell-based, human; conditions: human, mean ± SEM; for CC50 at 48 h: half-maximal cytotoxicity concentration, Huh-7.5.1 cells, maximum dose tested 100 μM; for viability at 48 h, 50 µM / viability at 48 h, 100 µM: percentage of vehicle (0.1% DMSO) control; for viability at 48 h, 10 µM: 10 μM (controls)
Procedure: (§3) Huh-7.5.1 cells were maintained in Dulbecco's modified Eagle's medium (DMEM) containing 4.5 g/l D-glucose, 4 mM L-glutamine (Life Technologies), supplemented with 100 units/mL penicillin (Life Technologies), 100 μg/mL streptomycin (Life Technologies), non-essential amino acids (Sigma-Aldrich), 1 mM Hepes (Life Technologies) and 10% heat-inactivated fetal calf serum (FCS, Hyclone). […] In cell viability and HCV in vitro propagation experiments, the final concentration of DMSO was systematically adjusted to 0.1%.
as §1, §2
(§4) We evaluated the anti-HCV activity of the 10 atranorin-related compounds, using a virus grown in cell culture (HCVcc) with a modification of its genome resulting in expression of the Renilla luciferase reporter gene. […] These two compounds are known to interfere with the entry and replication steps of viral cycle, respectively. […] The first experimental procedure used involved the preincubation of human hepatic Huh-7.5.1 cells for 1 h with various doses of the molecules. The cells were then cultured in the presence of both the molecules tested and the virus, for an additional 48 h. At the end of the incubation period, we assessed cell viability and viral replication. This protocol made it possible to test the effects of molecules on both virus entry and replication.

Huh-7.5.1 cells [2] = experiment: in vitro; assay type: cell-based, human; conditions: for Effect on cell viability signal: high doses, up to 100 μM
Procedure: as §3, §1, §2, §4

HCVcc [3] = experiment: Targeted stage of HCV life cycle: compounds present during inoculation (I), replication (R) or both (I/R), luciferase readout; assay type: cell-based, hepatitis C virus; conditions: for Inhibition profile / step of HCV lifecycle targeted: compounds present during I (17 h), R (30 h) or I/R
Procedure: (§5) An experimental procedure was designed to determine the inhibitor class (entry or replication) to which compounds 1, 5 and 6 belonged. HCVcc were added to the cell culture during a limited time window (around 17 h). The cells were then washed to eliminate viruses from the inoculum and viral replication was allowed to take place for an additional 30 h. The selected compounds were present in the culture medium during inoculation (I), replication (R), or both these phases (inoculation and replication, I/R). […] In terms of antiviral activity, we expected to obtain two inhibition profiles for the luminescence signal, depending on the step of the viral lifecycle targeted by the drug (Fig. 4B). […] The inhibitory effect on the establishment of replication (R conditions) observed at high doses was probably due principally to the inhibition of new infection cycles initiated by virions produced by cells infected with the inoculum. A different profile was obtained for telaprevir. […] Its presence in the medium from inoculation onwards prevented the priming of the infection process at the viral polyprotein maturation step, which normally takes place after the translation of the HCV genome issued from the infecting virus. This maturation step is also repeated during the replication phase, for amplification of the viral genome and virion assembly. It is therefore not surprising that inhibition was strongest when telaprevir was present throughout the viral lifecycle (I/R), as there was probably an additive effect. […] The chemical group in this position seems to influence not only the potency of the molecule, but also its mechanism of action. Further studies are required to identify the processes involved because, for example, we cannot rule out a role in the inhibition of viral entry for compounds 5 and 6, even though they appeared to act as replication inhibitors in this experiment. It could be hypothesized that the replacement of a methyl or hydroxymethyl by an aldehyde group in position C-3 would lead to a loss of replication inhibition, but maintenance of the ability to inhibit viral entry.
(§6) Fig 4 Effects of compounds 1, 5 and 6 on cell viability and HCV propagation in vitro. One day after seeding at 50,000 cells/cm^2, Huh-7.5.1 cells were infected with HCVcc at a MOI ~ 0.03 for 17 h (inoculation phase: I). The inoculum was removed and cell cultures were washed before the addition of new medium and incubation for an additional 30 h (replication phase: R). Compounds were present at various concentrations either during both phases (I/R: black circles and solid lines) or during only one phase (I: black squares and dotted lines; R: black triangles and dashed lines). (A) Cell viability and (B) viral replication were assessed at the end of the incubation period. Results are expressed as percentages (mean ± SEM; n = 3) of the mean values obtained for the respective control cultures, in which cells were incubated with vehicle (0.1% DMSO) alone.

Huh-7.5.1 cells [4] = experiment: Cell viability in the inoculation/replication (I, R, I/R) procedure; assay type: cell-based, human
Procedure: as §5
as §6, with “Compounds were present at various concentrations either during both phases (I/R: black circles and solid lines) or during only one phase (I: black squares and dotted lines; R: black triangles and dashed lines).” left out

[5] = Stability of the molecule in solution; assay type: physicochemical; conditions: even if dissolved immediately before use
[6] = percentage of vehicle control, n = 3

SMILES	IC50 (HCVcc [1])	CC50 at 48 h (in vitro)	viability at 48 h, 50 µM (in vitro; n = 3)	viability at 48 h, 100 µM (in vitro; n = 3)	Effect on cell viability signal (Huh-7.5.1 cells [2]; 48 h)	Inhibition profile / step of HCV lifecycle targeted (HCVcc [3])	other results
COC(=O)c1c(C)cc(OC(=O)c2c(C)cc(O)c(C=O)c2O)c(C)c1O [Compound 1, atranorin]	22.3 ± 8 µM	> 100 µM	95.9 ± 4.5%	91.8 ± 5.9%	minimal loss of signal	inhibited only viral entry; also recorded: effects similar to those of erlotinib	Inhibitory effect when present only during inoculation (HCVcc [3]; I condition only, up to 100 μM): no inhibitory effect; Effect on cell viability (Huh-7.5.1 cells [4]; regardless of incubation conditions (I, R, I/R)): no effect on cell viability
COC(=O)c1c(C)cc(OC(=O)c2c(C)cc(O)c(/C=C/C(C)=O)c2O)c(C)c1O [Compound 2, (E)-[3-hydroxy-4-(methoxycarbonyl)-2,5-dimethylphenyl]-2,4-dihydroxy-6-methyl-3-(3-oxobut-1-en-yl) benzoate]	64.5 ± 26.5 µM	> 100 µM	110 ± 5.9%	107 ± 5.7%	–	–	Stability in solution [5]: instability of the molecule in solution; melting point: 234 to 236 °C (dec.)
COC(=O)c1c(C)cc(OC(=O)c2c(C)cc(O)cc2O)c(C)c1O [Compound 3, methyl-3’-methyllecanorate]	25.4 ± 1.7 µM	82 µM	52.7 ± 0.6%	63.1 ± 2.9%	–	–	SI (selectivity index) (HCVcc [1]; ratio of CC50 to IC50): 3.2; CC50 (Huh-7.5.1 cells [2]; half-maximal cytotoxicity concentration, Huh-7.5.1 cells, 48 h, mean ± SEM, maximum dose tested 100 μM): 81.9 ± 13.6 µM
COC(=O)c1c(C)cc(OC(=O)c2c(C)cc(O)c(C(=O)O)c2O)c(C)c1O [Compound 4, cladonioidesin]	> 100 µM	> 100 µM	104 ± 2.5%	90.4 ± 3.4%	minimal loss of signal	–	Anti-HCV activity (HCVcc [1]): inactive
COC(=O)c1c(C)cc(OC(=O)c2c(C)cc(O)c(C)c2O)c(C)c1O [Compound 6, Methyl-4-O-demethylbarbatate]	13.3 ± 1.6 µM	> 100 µM	145 ± 3.2%	81.6 ± 20.6%	–	interfered with viral replication; also recorded: profiles typical of replication inhibitors	Concentration above which cytotoxic effects emerged (Huh-7.5.1 cells [2]; decrease of the viability signal): greater than 50 μM; Concentration of the peak of the higher viability signal (Huh-7.5.1 cells [2]; slightly higher viability signal at high doses, modest stimulation of cell proliferation): about 50 μM; Cytotoxicity at 100 μM (Huh-7.5.1 cells [4]; 100 μM, except in R conditions): induced some cytotoxicity
COC(=O)c1c(C)cc(O)c(C)c1O [Compound 7, methyl-2,4-dihydroxy-3,6-dimethylbenzoate]	50.6 ± 5 µM	> 100 µM	101 ± 5.6%	97.3 ± 6.2%	–	–	–
COC(=O)c1c(C)cc(O)cc1O [Compound 8, methyl orsellinate]	≥ 100 µM	> 100 µM	106 ± 2.9%	93.4 ± 4.2%	minimal loss of signal	–	Anti-HCV activity (HCVcc [1]): inactive
Cc1cc(O)c(C=O)c(O)c1 [Compound 9, atranol]	40.3 ± 0.6 µM	> 100 µM	91.1 ± 3.5%	78.7 ± 2.3%	minimal loss of signal	–	–
COC(=O)c1c(C)cc(O)c(C=O)c1O [Compound 10, methyl haematommate]	55.5 ± 7.9 µM	> 100 µM	88.1 ± 5.5%	72.2 ± 2%	minimal loss of signal	–	–
C#Cc1cccc(Nc2ncnc3cc(OCCOC)c(OCCOC)cc23)c1 [Erlotinib, erlotinib, reference compound]	0.64 ± 0.18 µM	–	–	–	–	most efficient if present at least during the initial interaction between cells and viruses	viability at 48 h, 10 µM (in vitro; [6]): 86.5 ± 5.1%; Effect on cell viability (Huh-7.5.1 cells [4]): small anti-proliferative effect
CCC[C@H](NC(=O)[C@@H]1[C@H]2CCC[C@H]2CN1C(=O)[C@@H](NC(=O)[C@@H](NC(=O)c1cnccn1)C1CCCCC1)C(C)(C)C)C(=O)C(=O)NC1CC1 [Telaprevir, telaprevir, reference compound]	0.18 ± 0.02 µM	–	–	–	–	inhibitory action regardless of the experimental conditions (I or R)	viability at 48 h, 5 µM (in vitro; 5 μM (controls), percentage of vehicle control, n = 3): 101.9 ± 0.9%; viability at 48 h, 10 µM (in vitro; [6]): 94.1 ± 4%

— PMC4368788, “Depsides: Lichen Metabolites Active against Hepatitis C Virus” (PLoS ONE, 2015)
